Results on six compounds are retold here after paper PMC6985102 (Scientific Reports, 2020).

Where only a bound is given, the exact number is not on record here.

By clearance is commonly meant the volume of plasma or blood freed of the substance per unit of time. High values mean efficient removal, low ones inefficient removal. A word on the half-life: it is the time in which the quantity being followed falls by half.

The target in data set [1] is T1, BSA (Bos taurus, UniProt P02769). In words: Albumin binding degree by ultrafiltration. The conditions noted are these: 5% albumin solution, SeC 20 µg/mL. The arrangement: purchased Thermo Fisher. The data set is classed as in vitro ADME, bovine. The procedure: Two hundred µL of SeC solution were mixed with equal volume of H2O (control) or 5% BSA solution (final SeC concentration being 20 µg/mL). The mixture was transferred into an ultrafiltration tube (cut off 10 kDa, Sigma-Aldrich, 13239E) and centrifuged (2000 g and 5 min) to obtain the ultra-filtrate. Twenty µL of the ultra-filtrate were mixed with 50 µL of ACN and analyzed for SeC in parent form. Albumin binding degree was calculated as the percentage of SeC peak area in BSA solution in relative to that in H2O.
T1 sequence (P02769 25-607): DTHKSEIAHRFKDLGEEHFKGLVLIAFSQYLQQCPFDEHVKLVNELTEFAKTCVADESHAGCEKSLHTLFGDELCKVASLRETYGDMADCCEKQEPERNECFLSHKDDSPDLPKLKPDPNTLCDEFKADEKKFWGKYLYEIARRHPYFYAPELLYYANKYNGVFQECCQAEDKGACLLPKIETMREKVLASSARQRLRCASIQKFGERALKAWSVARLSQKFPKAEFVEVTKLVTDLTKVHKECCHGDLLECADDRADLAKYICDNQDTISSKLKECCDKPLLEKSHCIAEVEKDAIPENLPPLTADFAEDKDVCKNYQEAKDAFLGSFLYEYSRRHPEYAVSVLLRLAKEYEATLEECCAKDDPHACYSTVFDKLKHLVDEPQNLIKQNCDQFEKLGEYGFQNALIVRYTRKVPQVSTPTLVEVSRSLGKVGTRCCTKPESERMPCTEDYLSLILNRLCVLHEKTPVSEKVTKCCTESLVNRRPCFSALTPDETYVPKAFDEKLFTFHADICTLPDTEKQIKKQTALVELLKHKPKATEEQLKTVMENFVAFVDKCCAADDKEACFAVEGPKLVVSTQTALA

The next data set deals with human serum albumin (Homo sapiens, UniProt P02768). Nature of the data set: XAS linear combination fitting of SeC-human plasma mixture (SeC-HP). The following applies: XANES linear combination fitting, total SeC 20 µg/ml; for SeC-HSA (%): albumin-bound share in SeC-human plasma mixture; for SeC (%): free SeC share in SeC-human plasma mixture. The procedure: SeC solution (40 µL; 2 mg/mL) was mixed with HSA (50 mg/mL in H2O; […]) and kept at room temperature for 30 min. The crude material was separated on a Superdex 200 Increase 10/300 GL column (GE Healthcare). The mobile phase consisted of ACN/H2O (5/95; v/v) at a flow rate of 0.75 mL/min. A total of 40 fractions (1 ml per fraction) approximately were collected, pooled and lyophilized (selenol-human serum albumin conjugate; SeC-HSA).
Chain of human serum albumin (P02768 25-609): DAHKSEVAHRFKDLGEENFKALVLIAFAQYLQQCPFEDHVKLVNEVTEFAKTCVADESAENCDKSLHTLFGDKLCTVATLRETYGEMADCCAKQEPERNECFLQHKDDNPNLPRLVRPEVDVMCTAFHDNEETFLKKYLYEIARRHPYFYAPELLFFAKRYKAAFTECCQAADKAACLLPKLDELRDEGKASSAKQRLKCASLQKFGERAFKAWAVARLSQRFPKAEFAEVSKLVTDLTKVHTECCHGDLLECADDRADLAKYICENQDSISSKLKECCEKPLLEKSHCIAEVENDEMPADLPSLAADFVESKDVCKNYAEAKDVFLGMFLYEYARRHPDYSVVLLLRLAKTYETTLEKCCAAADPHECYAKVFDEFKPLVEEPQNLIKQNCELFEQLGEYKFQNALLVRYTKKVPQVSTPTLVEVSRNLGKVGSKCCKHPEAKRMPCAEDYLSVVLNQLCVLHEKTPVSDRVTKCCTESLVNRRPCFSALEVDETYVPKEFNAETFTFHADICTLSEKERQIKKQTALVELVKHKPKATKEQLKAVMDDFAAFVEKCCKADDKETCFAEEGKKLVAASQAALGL
The mixture of SeC and human plasma (SeC-HP) was prepared. Generally, SeC solution (20 µL; 2 mg/mL) was mixed with 2 mL human plasma, kept at room temperature for 10 min and lyophilized. Selenium K-edge XAS measurements were performed in QEXAFS mode using a Si(311) double-crystal monochromator in CLAESS beamline at ALBA synchrotron light facility (Barcelona, Spain). Self-supported 5 mm pellets of SeC-HSA or SeC-HP (~20 mg) were measured in fluorescence mode using a 5 elements Silicon drift detector. For the reference compounds, the appropriate amount of pure SeC was mixed with cellulose to form pellets with an optimum absorption jump in transmission mode. Transmission was measured with ionization chambers filled with appropriate mixtures of N2 and Kr gases. To avoid radiation damage, all measurements were performed at liquid N2 temperature using the cryostat available at the beamline. Data analysis was performed using Demeter software package (version 0.9.26)[23].
In order to confirm the albumin binding, SeC was firstly allowed to react with HSA. The crude material was then separated by size exclusion chromatography and the eluent corresponding to […] was collected and lyophilized (SeC-HSA). SeC-HSA was subsequently subjected to XAS measurement and compared to the SeC itself. […] In addition, since the XAS spectra of mixtures can be expressed as an additive combination of its constituents, a linear combination fitting analysis using the reference spectra of SeC-HSA and SeC was carried out to assess the amount of each form in the mixture of SeC and human plasma (SeC-HP).
27 Supplementary Table 3. Linear combination fitting results of X-ray absorption near
28 edge spectra. The fitting was performed over the spectra for selenocompound-human plasma
29 mixture between -20 and 50 eV keeping E0 fixed and equal to 0 eV.

A short description of data set [2]: Stability of selenocompound in plasma and selenol derivative in processed sample (RECID). It is filed as in vitro ADME, human. The procedure: 48 Supplementary Table 7. Stability of selenocompound in plasma and selenol derivative in
49 processed sample. SeC-spiked plasma was treated as indicated and then analyzed using
50 RECID. SeC-NEM in processed sample was treated in the same way and then subjected to
51 LC-MS analysis. Stability was shown as the percentage of the peak area after indicated
52 treatment to that from base line value. SeC concentrations were 20 µg/mL. Results are shown
53 as the mean ± SD of three technical replicates.
SeC Sample Type Treatment
RT/24 hr 4 °C/24 hr -20 °C/24 hr Freeze-Thaw/5 Cycles

The target of data set [3] is T1, BSA. In words: Extraction efficiency of parent SeC after deproteinization (BSA, NEM-pretreated BSA). The procedure: The spiked matrix was obtained by adding 10 µL of SeC solution into 10 µL of blank plasma or 5% BSA solution. To extract the parent SeC from the prepared spiked matrix (20 µL), 50 µL of ACN were added followed by rigorous vortexing. The mixture was centrifuged (30,000 g, 10 min) to obtain the extract. Two µL of the extract were injected into the liquid chromatography-mass spectrometry (LC-MS, Thermo TSQ Quantum Ultra) analyzer. Details about LC conditions (column, mobile phase and flow rate) and MS parameters were listed in Supplementary Table 1.
To clarify the role of albumin thiols, 10 µL of 5% BSA solution were pre-incubated with NEM (10 µL, 0.4 M in DMA) for 10 min before being mixed with SeC solution (10 µL). Again, 50 µL of ACN were used for extraction and 2 µL of the extract were injected into LC-MS for analysis.

The test system of the next data set is C1498 cells. In words: Cytotoxicity of SeC (CellTiter-Glo). The following applies: C1498 leukemic cells, 24 hr, within the concentration range tested. The procedure: C1498 cells were cultured in DMEM supplemented with FBS (10%, v/v), penicillin (100 unit/mL) and streptomycin (100 µg/mL). Cells under the exponential growth phase were used for the cytotoxicity study. […] The stock solutions were diluted with cell culture medium till target concentration range. Briefly, 350 µL of cell suspension (0.2 × 10^6 cells/mL) were mixed with equal volume of SeC solution. The mixture was aliquoted to 96-well plate (100 µL per well) and incubated for 24 hours. Cell viability was determined using CellTiter-Glo kit (Promega, G7571). Cells treated with the appropriate solvent were used as the control. Cell survival rate was calculated as the percentage of […] in SeC-treated cells/control group.
(In general: Cellular ATP, detected with luciferase, serves as a proxy for viable cell number.)

Data set [4] in a line: Pharmacokinetic study in mouse. The following applies: for clearance / half-life: C57BL/6 albino, iv. The procedure: Blank plasma (10 µL) was spiked with 5 µL of SeC solution. NEM (10 µL, 0.4 M in DMA) and TCEP (5 µL, 0.2 M in H2O) were successively added to the spiked plasma. The mixture was vortexed for 30 sec and left for 10 min at room temperature before deproteinization using 50 µL of ACN. Two µL of processed sample were injected for LC-MS analysis (LC-MS parameters listed in Supplementary Table 2).
All animal experiments were approved by the Stockholm Southern Ethical Committee and performed in accordance with Swedish Animal Welfare Law (ethical permit no. ID 1031). CysSe2 (0.7 mg/mL) or MeSeA (1 mg/mL) was prepared in DPBS and the pH was adjusted to around 7.4. Ebselen or p-XSC was first dissolved in DMSO/Cremophor EL (1:1, v/v) at 5 mg/mL and then diluted with DPBS till 0.5 mg/mL. CysSe2 or MeSeA was injected into C57BL/6 albino mouse via the tail vein at a dose of 5 mg/kg; while the dose for ebselen and p-XSC was 2 mg/kg. Approximately 50 µL of blood were collected from the facial vein at different time points into EDTA-coated vials. SeC concentration in plasma was analyzed as described under section “Analysis of SeC using RECID”. The detected concentrations were fitted to a bolus injection in a one-compartment open model and the pharmacokinetic parameters were calculated using WinNonLin software (version 2.0).

Where [5] appears, read: Spiked Plasma, 4 °C/24 hr, SeC 20 µg/mL.
The mark [6] stands for this setting: Spiked Plasma, -20 °C/24 hr, SeC 20 µg/mL.
[7] abbreviates: Spiked Plasma, Freeze-Thaw/5 Cycles, SeC 20 µg/mL.
Where [8] appears, read: Spiked Plasma, RT/24 hr, SeC 20 µg/mL.
[9] abbreviates: 5% BSA (pristine albumin) after deproteinization, SeC 20 µg/mL.
[10] abbreviates: NEM pretreated-BSA (albumin thiols blocked) after deproteinization, SeC 20 µg/mL.

Consider `NC(C[Se][Se]CC(N)C(=O)O)C(=O)O` (stereo not shown) [CysSe2, Selenocystine], for which the Albumin binding degree at BSA [1] is recorded as 52–100%. Also, at human serum albumin, the “SeC-HSA (%)” value is given as 80.4%. For the same compound, on human serum albumin, the “SeC (%)” value came out at 19.6%. Further, the “Stability (peak area vs base line)” value in data set [2] (setting [5]) is 100.9 ± 7.9%; in data set [2] (setting [6]) it was 99.6 ± 6.4%; in data set [2] (setting [7]), 102.2 ± 0.6%; in data set [2] (setting [8]), 98.6 ± 7.1%. Besides, the Extraction efficiency on BSA [3] (setting [9]) is recorded as 21.4%; at BSA [3] (setting [10]) it was 79.6%. Moreover, the Cytotoxicity entry in the data set with C1498 cells is recorded as “showed cytotoxicity”. In data set [4] (plasma), the clearance is 0.642 mL/min. Besides, the half-life in data set [4] (plasma) turned out to be 8.4 ± 1.2 min. Besides, the “Total exposure compared to that of ebselen” value in data set [4] (intravenous, CysSe2 5 mg/kg vs ebselen 2 mg/kg) is on record as “around 72%”. The “Exposure adjusted for dose, relative to ebselen” value in data set [4] (intravenous, dose-adjusted) was “less than one third”.

For the compound `O=c1c2ccccc2[se]n1-c1ccccc1` [Ebselen], the Albumin binding degree on BSA [1] is given as 52–100%. Also, the “SeC-HSA (%)” value at human serum albumin was 91.5%. For the same compound, at human serum albumin, the “SeC (%)” value is recorded as 8.5%. Besides, the “Stability (peak area vs base line)” value in data set [2] (setting [5]) worked out at 113.1 ± 0.5%; in data set [2] (setting [6]), 108.2 ± 3.2%; in data set [2] (setting [7]), 97.2 ± 2.7%; in data set [2] (setting [8]), 110.3 ± 1.8%. Besides, the Extraction efficiency on BSA [3] (setting [9]) is given as 9.3%; on BSA [3] (setting [10]), 90.7%. Also, the Cytotoxicity result with C1498 cells is given as “showed cytotoxicity”. Moreover, the clearance in data set [4] (plasma) is 0.177 mL/min. Further, the half-life in data set [4] (plasma) is 13.2 ± 2.4 min.

Regarding `C[Se](=O)O` [MeSeA, methylseleninic acid], on BSA [1], the Albumin binding degree is listed as 52–100%. Besides, the “SeC-HSA (%)” value at human serum albumin is on record as 100.0%. On human serum albumin, the “SeC (%)” value came out at 0%. For the same compound, the “Stability (peak area vs base line)” value in data set [2] (Processed sample (SeC-NEM derivative), 4 °C/24 hr) was 106.7 ± 0.5%; in data set [2] (Processed sample (SeC-NEM derivative), -20 °C/24 hr), 103.2 ± 1.0%; in data set [2] (Processed sample (SeC-NEM derivative), Freeze-Thaw/5 Cycles), 104.3 ± 0.4%; in data set [2] (Processed sample (SeC-NEM derivative), RT/24 hr), 114.3 ± 0.3%; in data set [2] (setting [5]) it was 108.9 ± 4.8%; in data set [2] (setting [6]) it was 116.0 ± 3.2%. The “Stability (peak area vs base line)” value in data set [2] (setting [7]) was 117.3 ± 0.5%; in data set [2] (setting [8]), 110.9 ± 2.0%. Besides, the Extraction efficiency is listed as 0% at BSA [3] (setting [9]) and 94.8% at BSA [3] (setting [10]). For the same compound, in the data set on C1498 cells, the Cytotoxicity entry is “showed cytotoxicity”.

The compound `C[Se]C[C@H](N)C(=O)O` [MeSeCys, methylselenocysteine] showed an Albumin binding degree on BSA [1] of less than 3%. Besides, on BSA [3] (bovine, 20 µg/mL), the Extraction efficiency result is given as “over 95%”. The Cytotoxicity entry in the data set on C1498 cells was “no cytotoxic effect”.

In turn, `C[Se]CC[C@H](N)C(=O)O` [SeMet, Selenomethionine] displayed an Albumin binding degree at BSA [1] of less than 3%. Moreover, the Extraction efficiency result at BSA [3] (setting [9]) was “over 95%”. Also, the Cytotoxicity entry in the data set with C1498 cells is “no cytotoxic effect”.

For the compound `N#C[Se]Cc1ccc(C[Se]C#N)cc1` [p-XSC, p-xyleneselenocyanate], on BSA [1], the Albumin binding degree was 52–100%. Further, at human serum albumin, the “SeC-HSA (%)” value was 100.0% and the “SeC (%)” value worked out at 0%. The Cytotoxicity result in the data set with C1498 cells is on record as “showed cytotoxicity”. Further, in data set [4] (in vivo), the clearance was 0.0967 mL/min and the half-life amounted to 30.6 ± 7.2 min.
